The record followed here is article PMC8213057, “Targeting ALK2: An Open Science Approach to Developing Therapeutics for the Treatment of Diffuse Intrinsic Pontine Glioma” (Journal of Medicinal Chemistry, 2020).

In one assay the target is T1, PKG1a (Homo sapiens, UniProt Q13976).
T1 sequence (Q13976 1-671): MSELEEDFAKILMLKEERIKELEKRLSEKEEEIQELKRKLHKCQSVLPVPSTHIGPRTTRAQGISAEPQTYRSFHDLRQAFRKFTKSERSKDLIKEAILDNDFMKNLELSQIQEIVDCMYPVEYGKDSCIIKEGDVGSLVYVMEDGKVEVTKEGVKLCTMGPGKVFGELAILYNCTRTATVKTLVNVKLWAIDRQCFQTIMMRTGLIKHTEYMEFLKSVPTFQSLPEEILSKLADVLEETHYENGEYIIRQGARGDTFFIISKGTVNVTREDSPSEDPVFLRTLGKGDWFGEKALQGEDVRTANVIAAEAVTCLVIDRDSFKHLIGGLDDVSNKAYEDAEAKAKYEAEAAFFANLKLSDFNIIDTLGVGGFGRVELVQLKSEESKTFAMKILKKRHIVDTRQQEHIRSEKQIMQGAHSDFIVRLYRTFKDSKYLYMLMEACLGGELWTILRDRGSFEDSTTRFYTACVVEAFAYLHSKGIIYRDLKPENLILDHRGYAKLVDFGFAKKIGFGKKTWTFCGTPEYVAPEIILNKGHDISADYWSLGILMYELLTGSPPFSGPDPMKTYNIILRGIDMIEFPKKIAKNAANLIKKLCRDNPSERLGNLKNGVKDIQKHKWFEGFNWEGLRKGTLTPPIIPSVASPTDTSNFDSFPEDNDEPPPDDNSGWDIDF
The experiment in a line: biochemical. Particulars: read-out: % enzyme activity, 1 μM; Run 1, Run 2.

The target in another assay is EPHA7 (Homo sapiens, UniProt Q15375). Particulars: 1 μM; Run 1, Run 2.
Sequence of EPHA7 (Q15375 28-998): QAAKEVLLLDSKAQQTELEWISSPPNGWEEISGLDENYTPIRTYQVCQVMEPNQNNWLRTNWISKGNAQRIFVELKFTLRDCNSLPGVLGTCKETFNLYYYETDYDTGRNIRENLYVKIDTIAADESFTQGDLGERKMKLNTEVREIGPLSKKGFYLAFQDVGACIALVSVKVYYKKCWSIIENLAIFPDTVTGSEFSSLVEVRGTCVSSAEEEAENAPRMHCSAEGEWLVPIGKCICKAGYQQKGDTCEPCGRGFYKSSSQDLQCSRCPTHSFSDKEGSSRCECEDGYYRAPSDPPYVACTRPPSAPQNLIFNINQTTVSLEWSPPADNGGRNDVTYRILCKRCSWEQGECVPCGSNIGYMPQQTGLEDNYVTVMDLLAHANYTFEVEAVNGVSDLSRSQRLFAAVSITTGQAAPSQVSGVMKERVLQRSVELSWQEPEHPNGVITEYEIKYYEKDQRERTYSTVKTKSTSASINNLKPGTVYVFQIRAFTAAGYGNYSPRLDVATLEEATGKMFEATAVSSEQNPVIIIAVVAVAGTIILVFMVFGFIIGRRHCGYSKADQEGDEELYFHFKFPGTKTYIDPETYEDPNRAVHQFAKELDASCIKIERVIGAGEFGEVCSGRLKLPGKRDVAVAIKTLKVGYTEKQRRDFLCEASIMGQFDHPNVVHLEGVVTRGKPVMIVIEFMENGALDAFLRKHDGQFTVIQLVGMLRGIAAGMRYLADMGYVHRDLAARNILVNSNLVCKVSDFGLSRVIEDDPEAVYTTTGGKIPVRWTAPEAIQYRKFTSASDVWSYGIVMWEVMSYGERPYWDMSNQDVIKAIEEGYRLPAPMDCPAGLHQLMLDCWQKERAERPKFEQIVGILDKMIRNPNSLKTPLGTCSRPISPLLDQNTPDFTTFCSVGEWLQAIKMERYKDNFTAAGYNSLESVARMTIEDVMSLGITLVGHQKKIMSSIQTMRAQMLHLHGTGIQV
The next assay has as its target CAMK2d (Homo sapiens, UniProt Q13557). Particulars: 1 μM; Run 1, Run 2.
A further assay deals with T2, DDR2 (Homo sapiens, UniProt Q16832).
T2 sequence (Q16832 22-855): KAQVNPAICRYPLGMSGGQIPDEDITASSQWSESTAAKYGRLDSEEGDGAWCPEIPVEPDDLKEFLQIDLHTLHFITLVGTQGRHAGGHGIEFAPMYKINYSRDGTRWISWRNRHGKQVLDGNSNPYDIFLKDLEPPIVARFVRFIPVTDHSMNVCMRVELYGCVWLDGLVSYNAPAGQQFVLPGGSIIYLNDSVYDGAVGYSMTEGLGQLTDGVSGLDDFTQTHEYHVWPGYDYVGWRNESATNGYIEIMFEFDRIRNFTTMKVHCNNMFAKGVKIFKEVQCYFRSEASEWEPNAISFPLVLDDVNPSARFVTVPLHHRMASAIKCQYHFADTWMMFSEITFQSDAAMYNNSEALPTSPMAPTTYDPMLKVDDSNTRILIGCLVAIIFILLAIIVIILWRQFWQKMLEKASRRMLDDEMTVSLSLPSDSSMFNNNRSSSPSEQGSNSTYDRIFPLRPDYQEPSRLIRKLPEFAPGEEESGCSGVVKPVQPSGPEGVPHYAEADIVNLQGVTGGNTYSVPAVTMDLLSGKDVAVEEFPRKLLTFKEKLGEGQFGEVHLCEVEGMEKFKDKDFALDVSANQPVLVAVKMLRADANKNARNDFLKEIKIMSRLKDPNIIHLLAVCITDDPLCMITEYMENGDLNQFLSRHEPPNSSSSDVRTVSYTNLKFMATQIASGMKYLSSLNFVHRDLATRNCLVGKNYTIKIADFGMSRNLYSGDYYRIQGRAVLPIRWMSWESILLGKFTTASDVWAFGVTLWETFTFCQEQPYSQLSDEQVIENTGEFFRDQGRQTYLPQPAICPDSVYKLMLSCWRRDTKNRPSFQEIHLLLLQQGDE
The experiment in a line: biochemical. Particulars: read-out: % enzyme activity, 1 μM; Run 1, Run 2.

A further assay has as its target T3, TYRO3/SKY (Homo sapiens, UniProt Q06418).
T3 sequence (Q06418 41-890): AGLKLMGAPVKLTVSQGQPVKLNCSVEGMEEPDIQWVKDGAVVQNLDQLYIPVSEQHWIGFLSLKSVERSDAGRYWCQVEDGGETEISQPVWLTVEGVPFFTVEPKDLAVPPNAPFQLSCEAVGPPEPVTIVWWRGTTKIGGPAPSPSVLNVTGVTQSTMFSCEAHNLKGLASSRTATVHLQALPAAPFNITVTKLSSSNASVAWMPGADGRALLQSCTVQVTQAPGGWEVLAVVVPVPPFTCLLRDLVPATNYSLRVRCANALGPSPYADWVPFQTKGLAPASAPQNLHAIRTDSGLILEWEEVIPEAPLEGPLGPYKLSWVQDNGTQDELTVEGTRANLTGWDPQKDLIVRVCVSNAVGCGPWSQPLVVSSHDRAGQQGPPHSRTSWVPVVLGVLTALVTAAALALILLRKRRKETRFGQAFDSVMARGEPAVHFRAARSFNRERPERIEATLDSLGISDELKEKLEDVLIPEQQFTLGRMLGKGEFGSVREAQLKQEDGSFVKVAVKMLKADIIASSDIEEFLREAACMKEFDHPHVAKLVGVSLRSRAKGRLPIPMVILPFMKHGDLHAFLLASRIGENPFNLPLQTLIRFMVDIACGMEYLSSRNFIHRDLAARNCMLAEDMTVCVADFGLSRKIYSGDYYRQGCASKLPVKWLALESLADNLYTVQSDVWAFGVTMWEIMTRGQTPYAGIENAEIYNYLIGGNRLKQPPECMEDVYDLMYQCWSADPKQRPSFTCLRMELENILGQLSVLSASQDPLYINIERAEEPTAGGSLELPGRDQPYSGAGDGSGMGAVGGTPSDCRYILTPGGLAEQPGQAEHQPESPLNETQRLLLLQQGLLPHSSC
The experiment in a line: biochemical. Particulars: read-out: % enzyme activity, 1 μM; Run 1, Run 2.

In a further assay the target is CAMK1b (Homo sapiens, UniProt Q6P2M8). Particulars: 1 μM; Run 1, Run 2.
Sequence of CAMK1b (Q6P2M8 whole entry): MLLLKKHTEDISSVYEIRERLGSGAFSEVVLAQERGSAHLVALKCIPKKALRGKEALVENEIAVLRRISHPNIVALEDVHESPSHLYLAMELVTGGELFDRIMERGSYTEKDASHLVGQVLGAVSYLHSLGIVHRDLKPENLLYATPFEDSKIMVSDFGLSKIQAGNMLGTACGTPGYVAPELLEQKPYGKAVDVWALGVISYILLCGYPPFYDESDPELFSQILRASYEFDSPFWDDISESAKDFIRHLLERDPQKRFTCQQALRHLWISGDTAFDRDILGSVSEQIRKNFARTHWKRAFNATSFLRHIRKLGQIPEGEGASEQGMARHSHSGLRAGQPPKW
For a further assay, the target named is MNK1 (Homo sapiens, UniProt Q9BUB5). Particulars: 1 μM; Run 1, Run 2.
Sequence of MNK1 (Q9BUB5 whole entry): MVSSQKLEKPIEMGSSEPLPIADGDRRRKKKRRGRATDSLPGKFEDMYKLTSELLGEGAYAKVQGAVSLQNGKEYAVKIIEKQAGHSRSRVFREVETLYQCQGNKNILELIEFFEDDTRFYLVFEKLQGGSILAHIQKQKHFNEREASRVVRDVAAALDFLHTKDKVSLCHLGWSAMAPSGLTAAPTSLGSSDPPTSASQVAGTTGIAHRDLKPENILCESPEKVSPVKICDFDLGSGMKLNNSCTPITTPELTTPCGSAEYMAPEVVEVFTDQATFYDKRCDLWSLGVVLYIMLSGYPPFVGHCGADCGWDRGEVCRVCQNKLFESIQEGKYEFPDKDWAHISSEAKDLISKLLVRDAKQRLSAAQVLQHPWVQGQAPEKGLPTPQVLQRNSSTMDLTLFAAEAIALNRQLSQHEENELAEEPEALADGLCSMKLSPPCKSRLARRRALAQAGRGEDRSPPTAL

Structures are written as SMILES. Values joined by “and” are separate entries in the source; they are usually repeats but may differ in a detail not shown here. Equal entries are not always repeated.

Sequence of CAMK2d (Q13557 whole entry): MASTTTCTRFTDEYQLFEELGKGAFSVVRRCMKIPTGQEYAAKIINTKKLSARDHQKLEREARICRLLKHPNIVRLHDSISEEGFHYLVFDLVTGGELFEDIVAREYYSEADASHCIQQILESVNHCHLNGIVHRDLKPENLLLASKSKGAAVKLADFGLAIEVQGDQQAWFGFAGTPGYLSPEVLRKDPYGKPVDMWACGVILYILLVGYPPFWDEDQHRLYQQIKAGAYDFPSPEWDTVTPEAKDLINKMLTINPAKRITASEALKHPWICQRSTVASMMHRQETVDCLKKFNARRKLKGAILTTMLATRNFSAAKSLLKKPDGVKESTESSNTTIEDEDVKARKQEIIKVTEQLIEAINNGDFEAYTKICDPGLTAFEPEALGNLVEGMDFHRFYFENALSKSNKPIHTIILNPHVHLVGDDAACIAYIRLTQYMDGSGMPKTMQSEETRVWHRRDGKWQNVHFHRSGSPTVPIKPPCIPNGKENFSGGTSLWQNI

As for `COc1cc(-c2cncc(-c3ccc(N4C[C@@H](C)N(C)[C@@H](C)C4)cc3)c2C)cc(F)c1C(N)=O` [Compound 26c, 2-Fluoro-6-methoxy-4-(4-methyl-5-(4-((3R,5S)-3,4,5-trimethylpiperazin-1-yl)phenyl)pyridin-3-yl)benzamide], the remaining activity at 1 µM on PKG1a was found to be 102%; on DDR2, 92.7%; on TYRO3/SKY, 94.5%. The “% enzyme activity” value is on record as 98.36% at EPHA7, 95.15% at CAMK2d, 99.02% on CAMK1b and 70.81% at MNK1. Further, in the assay with DYRK1B, the % enzyme activity at 1 μM is 59.2% and 58.5%.

Consider `COc1cc(-c2cncc(-c3ccc(N4CCN(C)CC4)cc3)c2C)cc(F)c1C(N)=O` [Compound 26a, 2-Fluoro-6-methoxy-4-(4-methyl-5-(4-(4-methylpiperazin-1-yl)phenyl)pyridin-3-yl)benzamide], for which the figures for the remaining activity at 1 µM at PKG1a, at DDR2 and at TYRO3/SKY were 97.9%, 100% and 84.1%, respectively. The “% enzyme activity” value was 98.85% on EPHA7, 94.73% at CAMK2d, 95.63% at CAMK1b and 50.34% on MNK1. Moreover, the % enzyme activity at 1 μM in the assay with DYRK1B is 40.6% and 39.8%.
